Test results taken from article PMC8404199, “Structure–Activity Relationships of Triple-Action Platinum(IV) Prodrugs with Albumin-Binding Properties and Immunomodulating Ligands” (Journal of Medicinal Chemistry, 2021).

Assays:
HCT116 cells = experiment: Cell cycle analysis in HCT116 cells; type: cell-based, human; conditions: HCT116, 50 µM, 24 h, 5-fold excess AA
Experimental: The cells were seeded at 600,000 cells/well in six-well plates and allowed to recover for 24 h. On the next day, cells were exposed to the compounds for 24 h, then trypsinized, and collected. Subsequently, cells were washed with PBS and centrifuged (400g, 5 min), and the cell pellet was resuspended in 100 μL of 0.9% NaCl solution. The cell suspension was then added dropwise to 1.8 mL of ice-cold 80% ethanol and incubated for 48 h at −20 °C. The fixated cells were centrifuged (6200g, 2 min), and the cell pellet was diluted in 0.5 mL of PBS with 0.1 mg/mL RNAse A (R5503, Merck, Darmstadt, Germany), which was previously heat-activated (10 min at 96 °C), and samples were incubated for 30 min at 37 °C to remove RNA content. Next, to stain DNA, propidium iodide (81845, Merck, Darmstadt, Germany) at a concentration of 5 μg/mL was added, samples were incubated for 30 min on ice and subsequently measured by flow cytometry.

[1] = test system: phosphorylation of histone H2A.X at position Ser139; experiment: pH2AX signal detection in HCT116 cells; type: cell-based, human; conditions: HCT116, 50 µM, 24 h, 5-fold excess AA
Experimental: HCT116 cells were seeded on polytetrafluoroethylene-printed spot slides (E63424-06, Science Services GmbH, Munich, Germany) at a density of 4000 cells/spot. On the next day, cells were exposed to the compounds for 24 h, at 50 μM and fixed in a 4% formaldehyde solution in phosphate-buffered saline (PBS) with a pH adjusted to 7.4 (158127, Merck, Darmstadt, Germany) for 15 min at RT. Spots were washed thrice with PBS each for 5 min, and samples were then incubated in a blocking buffer [PBS, 5% albumin (Carl Roth, Karlsruhe, Germany), 0.3% Triton X-100 (T8787, Merck, Darmstadt, Germany)] for 1 h at RT. […] Next, samples were incubated with rhodamine-labeled wheat germ agglutinin (RL-1022, Vector Laboratories, California, USA) at a concentration for 5 μg/mL for 15 min at RT, and spots were washed twice in PBS, embedded in vectashield mounting medium with DAPI (VECH-1200, Szabo-Scandic, Vienna, Austria), and analyzed using a LSM700 confocal microscope (Zeiss Axio Observer.Z1, inverse, 63× plan-apochromat NA 1.4 Oil DIC objective). […] Images were analyzed using ImageJ software. […] Then, Alexa Fluor 488 signal (integrated density) was measured and normalized to nuclear area.

[2] = UHPLC reduction kinetics with dithiothreitol; type: physicochemical; conditions: 1 mM complex, 10 mM DTT, 1% DMF, 500 mM phosphate buffer pH 7.4, 20 °C
Experimental: Figure S 3: Reduction kinetics of reference compounds with AA at 20°C , measured by UHPLC and UV absorption at 220 nm. A: Comparison of OAc/IPAEs with amino -group containing SucCa/IdoEs; B:
Reductive stability of reference compounds with no 1MDT -like ligand. AUC-values were normalized to t = 0. Experimental conditions: 1 mM complex, 10 mM AA in 1% DMF and 500 mM phosphate buffer […]
conditions: 1 mM complex, 10 mM DTT in 1% DMF and 500 mM phosphate buffer (pH 7.4). […]

Treg differentiation = Treg differentiation assay in human PBMC/SKOV3 co-culture; type: cell-based; conditions: 50 μM, 5 days, PBMC from three donors co-cultured with SKOV3
Experimental: PBMCs were thawed and slowly dropped into warm medium at a rate of 1 drop/5 s. PBMCs were then centrifuged (10 min, 400g) and washed with warm AIM V medium (12055091, Thermo Fisher Scientific, Massachusetts, USA). PBMCs were co-cultured with SKOV3 at a ratio of 2:1 (PBMC/SKOV3) in 12-well CytoOne plates (CC7682-7512, Starlab, Hamburg, Germany). In the presence of IL-2 (SRP3085, Merck, Darmstadt, Germany) at a concentration of 80 ng per 10^6, PBMCs were added. To induce Treg differentiation, OKT3 monoclonal CD3 antibody (317302, BioLegend, California, USA) and TGF-β1 CHO (AF-100-21C-10 μg, Eubio, Vienna, Austria) were added at concentrations of 4 μg and 10 ng per 10^6 PBMC, respectively. […] After 3 days, 250 μL of fresh AIM V medium was added, and cells were incubated for another two days. On the day of measurement, supernatant, containing PBMC, was collected.
Cells were washed with PBS and stained using the Aqua Zombie Fixable Viability Kit (423101, BioLegend, California, USA), according to the manufacturer’s instructions. Cells were then stained with fluorescent dye-labeled antibodies, according to the manufacturer’s instructions (Table S7). […] The cleaned up data were analyzed using the gating strategy, as shown in Figure S15 for murine tissue and Figure S16 for human co-culture experiment.

SMILES: Cn1cc(CC([NH3+])C(=O)[O][Pt]23([O]C(=O)NCCCCCN4C(=O)CCC4=O)([NH]C4CCCCC4[NH]2)[O]C(=O)C(=O)[O]3)c2ccccc21.O=C([O-])C(F)(F)F [SucCa/IdoEs, (OC-6-34)-[(R)-2-Ammonio-3-(1-methyl-1H-indol-3-yl)propanoato][(1R,2R)-1,2-cyclohexanediamino][5-(2,5-dioxo-2,5-dihydro-1H-pyrrolidin-1-yl)pentylcarbamato]oxalatoplatinum(IV) Trifluoroacetate]
- fraction of cells in G2/M phase upon reduction by AA (HCT116 cells): increased fraction of cells in the G2/M phase
- pH2A.X signals upon reduction by AA [1]: increased pH2A.X signals
- reduction in the presence of dithiothreitol (in words) [2]: readily reduced

SMILES: Cn1cc(C[C@@H](NC(=O)[O][Pt]2([O]C(=O)CCCCCN3C(=O)CCC3=O)[O]C(=O)C(=O)[O]2)C(=O)O)c2ccccc21.N[C@@H]1CCCC[C@H]1N [SucEs/IdoCa]
- Treg differentiation (frequency of Treg in CD4+ T cells) (Treg differentiation): significantly reduced Treg differentiation

SMILES: Cn1cc(C[C@@H]([NH3+])C(=O)[O][Pt]2([O]C(=O)CCCCCN3C(=O)CCC3=O)[O]C(=O)C(=O)[O]2)c2ccccc21.N[C@@H]1CCCC[C@H]1N.O=C([O-])C(F)(F)F [SucEs/IdoEs, (OC-6-44)-[(R)-2-Ammonio-3-(1-methyl-1H-indol-3-yl)propanoato][(1R,2R)-1,2-cyclohexanediamino][6-(2,5-dioxopyrrolidin-1-yl)hexanoato]oxalatoplatinum(IV) Trifluoroacetate]
- fraction of cells in G2/M phase upon reduction by AA (HCT116 cells): increased fraction of cells in the G2/M phase
- pH2A.X signals upon reduction by AA [1]: increased pH2A.X signals
